From PMC8537988, “Re-Use of Caco-2 Monolayers in Permeability Assays—Validation Regarding Cell Monolayer Integrity” (Pharmaceutics, 2021)

System: Caco-2 monolayers
Test: Apical to basolateral permeability of LY through Caco-2 monolayers (Transwell, 12-well)
Format: in vitro ADME, human
Conditions: for LY Papp, µ best fit of Normal distribution to Papp / LY Papp, µ directly from Papp: single sampling at 60 min
Description: Caco-2 cells culture and monolayers preparation was as described in the reference protocol. Cells were maintained in T75 cm^2 flasks in culture medium (DMEM supplemented with 1% (v/v) NEAA, 10% (v/v) heat-inactivated FBS), in a humidified atmosphere of 5% CO2 at 37 °C. As recommended in the reference protocol, the permeability assays were performed using cells in passages 95–105. The cells were thawed on passage 89 and sub-cultured twice a week at or shortly before 90% confluency by a 1:8 split. To avoid seeding aggregated cells and the formation of multilayers in Transwell™ inserts, the cell clusters were disaggregated into single cells by passing them 3 times through a syringe needle of 23 gauges (BD Falcon) before cell counting. Caco-2 cells were seeded at 2.6 × 10^5 cells/cm^2 on 12-well polycarbonate filter inserts. The culture medium (with 1% (v/v) Pen/Strep) was replaced by fresh medium 6 h following seeding and then every 2–3 days thereafter until transport experiments.
The reference protocol was followed in the permeability assays, with slight modifications as required by the new experimental approach. Manipulation of the cell monolayers was conducted under sterile conditions (in the laminar flow hood or incubator). At the day of the experiments, the culture medium was removed and HBSS (further supplemented with 25 mM HEPES, 0.35 g/L sodium bicarbonate, pH 7.4) pre-warmed to 37 °C was added to the donor (0.5 mL) and receiver (1.5 mL) sides to wash the cell monolayers. The plate containing the inserts was placed (lid-covered) in an incubator without CO2 at 37 °C with an orbital shaker (IKA-Schüttler MTS4, JMGS, Lisboa, Portugal) at 50 rpm for 8 min. The washing step was repeated with new HBSS. The TEER was measured in HBSS at 37 °C using a Millicell® ERS-2 voltmeter equipped with a chopstick electrode pair (Merck, Lisboa, Portugal). A filter insert without cells was included in each set of experiments for correction of the TEER value for the background resistance. The resistance values (Ω cm^2) of the cell monolayers were obtained by subtracting the TEER value from blank inserts and multiplying by the surface area of the insert. All cell monolayers presented TEER values above 200 Ω cm^2. At least one insert of the set was fixed and stained for confocal microscopy analysis (see next section). The remaining ones were used to perform the apical to basolateral permeability assays with the paracellular marker LY. For this, the donor HBSS washing solution was decanted, and the inserts were placed into empty wells of a fresh 12-well plate. The permeability assay was initiated with the addition of 450 µL of the LY solution (20 µM in HBSS at 37 °C) simultaneously to the donor compartments of 3 to 4 insert, from which a 50 µL aliquot was immediately collected and stored for the calculation of the solute concentration in the donor compartment at t = 0. The inserts containing the LY solution were subsequently positioned in a pre-prepared 12-well plate containing HBSS (1.2 mL per well), and the lid-covered plate was placed on the incubator (without CO2, 50 rpm and 37 °C). At the defined sampling times, the plate was positioned into the laminar flow hood and the inserts were transferred into new wells containing fresh HBSS. The high fluorescence quantum yield of LY allows its detection by […], even for the very small amount expected to permeate during short permeation intervals. In this work we used 10, 20, 30, and 60 min or 60 min only as sampling times. At the end of the assay, inserts were transferred to empty wells and 50 µL was taken from the donor compartment for the calculation of the solute mass balance. The remaining solution was decanted, the inserts were placed on new wells containing 1.5 mL of pre-warm HBSS, and 0.5 mL of pre-warmed HBSS was added to each insert for TEER measurements. Some selected monolayers were prepared for microscopy; the remaining were incubated with culture media for re-use, as described below. […]

[1] = day 22, both sampling intervals (10 or 60 min)

Lucifer yellow CH di-potassium salt [LY]
LY Papp, µ best fit of Normal distribution to Papp (all days, all (88)): 1.9 10^-7 cm/s | LY Papp, µ directly from Papp (all days, all (88)): 2.1 10^-7 cm/s | LY Papp, µ best fit of Normal distribution to Papp (all days, re-use (41)): 1.6 10^-7 cm/s | LY Papp, µ directly from Papp (all days, re-use (41)): 1.8 10^-7 cm/s | LY QA, µ from Log(QA) (all days, single use & re-use, 1st 10 min (65)): 0.18% | LY QA, µ from Log(QA) (all days, single use & re-use, 1st 60 min (88)): 0.20% | LY QA, µ from Log(QA) (all days, single use & re-use, 2nd 10 min (66)): 0.21% | LY QA, µ from Log(QA) (all days, single use & re-use, 3rd 10 min (62)): 0.25% | LY QA, µ from Log(QA) (all days, single use & re-use, 4th 30 min (62)): 0.35% | LY QA, µ from Log(QA) (all days, single use & re-use, all 1st samplings (153)): 0.19% | LY QA, µ from Log(QA) (all days, single use & re-use, all samplings (346)): 0.23% | LY Papp, µ best fit of Normal distribution to Papp (all days, single use (47)): 2.1 10^-7 cm/s | LY Papp, µ directly from Papp (all days, single use (47)): 2.4 10^-7 cm/s | LY Papp, µ best fit of Normal distribution to Papp (day 22, all (35)): 2.0 10^-7 cm/s | LY Papp, µ directly from Papp (day 22, all (35)): 2.3 10^-7 cm/s | QA (%), µ, LY transported during first sampling interval (day 22, batch 1, passage 95, single use, one-time sampling (60 min)): 0.18% | QA (%), µ, LY transported during first sampling interval (day 22, batch 1, passage 98, single use, multi-time sampling (10 min)): 0.19% | QA (%), µ, LY transported during first sampling interval (day 22, batch 1, passage 100, single use, multi-time sampling (10 min)): 0.36% | QA (%), µ, LY transported during first sampling interval (day 22, batch 1, passage 104, single use, multi-time sampling (10 min)): 0.16% | QA (%), µ, LY transported during first sampling interval (day 22, batch 1, passage 105, single use, multi-time sampling (10 min)): 0.22% | QA (%), µ, LY transported during first sampling interval (day 22, batch 2, passage 95, single use, one-time sampling (60 min)): 0.27% | QA (%), µ, LY transported during first sampling interval (day 22, batch 2, passage 98, single use, one-time sampling (60 min)): 0.30% | QA (%), µ, LY transported during first sampling interval (day 22, batch 3, passage 95, single use, one-time sampling (60 min)): 0.19% | LogQA, centre of Normal distribution [1]: around −0.6 | QA, amount of LY that reaches the acceptor compartment [1]: around 0.2% | LY QA, µ from Log(QA) (day 22, single use, 1st 10 min (27)): 0.25% | LY QA, µ from Log(QA) (day 22, single use, 1st 60 min (35)): 0.21% | LY QA, µ from Log(QA) (day 22, single use, 2nd 10 min (28)): 0.29% | LY QA, µ from Log(QA) (day 22, single use, 3rd 10 min (26)): 0.37% | LY QA, µ from Log(QA) (day 22, single use, 4th 30 min (28)): 0.48% | LY QA, µ from Log(QA) (day 22, single use, all 1st samplings (62)): 0.23% | LY QA, µ from Log(QA) (day 22, single use, all samplings (144)): 0.30% | LY Papp, µ best fit of Normal distribution to Papp (day 25, all (29)): 1.7 10^-7 cm/s | LY Papp, µ directly from Papp (day 25, all (29)): 1.9 10^-7 cm/s | QA (%), µ, LY transported during first sampling interval (day 25, batch 1, passage 95, re-use, one-time sampling (60 min)): 0.21% | QA (%), µ, LY transported during first sampling interval (day 25, batch 1, passage 95, single use, one-time sampling (60 min)): 0.13% | QA (%), µ, LY transported during first sampling interval (day 25, batch 1, passage 98, single use, multi-time sampling (10 min)): 0.10% | QA (%), µ, LY transported during first sampling interval (day 25, batch 1, passage 100, re-use, multi-time sampling (10 min)): 0.25% | QA (%), µ, LY transported during first sampling interval (day 25, batch 1, passage 104, single use, multi-time sampling (10 min)): 0.14% | QA (%), µ, LY transported during first sampling interval (day 25, batch 1, passage 105, re-use, multi-time sampling (10 min)): 0.20% | QA (%), µ, LY transported during first sampling interval (day 25, batch 2, passage 95, re-use, one-time sampling (60 min)): 0.16% | QA (%), µ, LY transported during first sampling interval (day 25, batch 2, passage 98, single use, one-time sampling (60 min)): 0.25% | QA (%), µ, LY transported during first sampling interval (day 25, batch 3, passage 95, re-use, one-time sampling (60 min)): 0.19% | LY Papp, µ best fit of Normal distribution to Papp (day 25, re-use (23)): 1.7 10^-7 cm/s | LY Papp, µ directly from Papp (day 25, re-use (23)): 1.9 10^-7 cm/s | LY QA, µ from Log(QA) (day 25, re-use, 1st 10 min (16)): 0.22% | LY QA, µ from Log(QA) (day 25, re-use, 1st 60 min (23)): 0.18% | LY QA, µ from Log(QA) (day 25, re-use, 2nd 10 min (16)): 0.28% | LY QA, µ from Log(QA) (day 25, re-use, 3rd 10 min (16)): 0.27% | LY QA, µ from Log(QA) (day 25, re-use, 4th 30 min (16)): 0.38% | LY QA, µ from Log(QA) (day 25, re-use, all 1st samplings (39)): 0.20% | LY QA, µ from Log(QA) (day 25, single use & re-use, 1st 10 min (22)): 0.19% | LY QA, µ from Log(QA) (day 25, single use & re-use, 1st 60 min (29)): 0.18% | LY QA, µ from Log(QA) (day 25, single use & re-use, 2nd 10 min (22)): 0.25% | LY QA, µ from Log(QA) (day 25, single use & re-use, 3rd 10 min (22)): 0.25% | LY QA, µ from Log(QA) (day 25, single use & re-use, 4th 30 min (22)): 0.36% | LY QA, µ from Log(QA) (day 25, single use & re-use, all 1st samplings (51)): 0.18% | LY QA, µ from Log(QA) (day 25, single use & re-use, all samplings (117)): 0.23% | LY Papp, µ directly from Papp (day 25, single use (6)): 2.1 10^-7 cm/s | LY QA, µ from Log(QA) (day 25, single use, 1st 10 min (6)): 0.12% | LY QA, µ from Log(QA) (day 25, single use, 1st 60 min (6)): 0.18% | LY QA, µ from Log(QA) (day 25, single use, 2nd 10 min (6)): 0.19% | LY QA, µ from Log(QA) (day 25, single use, 3rd 10 min (6)): 0.20% | LY QA, µ from Log(QA) (day 25, single use, 4th 30 min (6)): 0.31% | LY QA, µ from Log(QA) (day 25, single use, all 1st samplings (12)): 0.15% | LY Papp, µ best fit of Normal distribution to Papp (day 28, all (24)): 1.8 10^-7 cm/s | LY Papp, µ directly from Papp (day 28, all (24)): 2.2 10^-7 cm/s | QA (%), µ, LY transported during first sampling interval (day 28, batch 1, passage 95, re-use, one-time sampling (60 min)): 0.33% | QA (%), µ, LY transported during first sampling interval (day 28, batch 1, passage 95, single use, one-time sampling (60 min)): 0.39% | QA (%), µ, LY transported during first sampling interval (day 28, batch 1, passage 98, single use, multi-time sampling (10 min)): 0.09% | QA (%), µ, LY transported during first sampling interval (day 28, batch 1, passage 100, re-use, multi-time sampling (10 min)): 0.09% | QA (%), µ, LY transported during first sampling interval (day 28, batch 1, passage 104, single use, multi-time sampling (10 min)): 0.23% | QA (%), µ, LY transported during first sampling interval (day 28, batch 1, passage 105, re-use, multi-time sampling (10 min)): 0.06% | QA (%), µ, LY transported during first sampling interval (day 28, batch 2, passage 95, re-use, one-time sampling (60 min)): 0.11% | QA (%), µ, LY transported during first sampling interval (day 28, batch 2, passage 98, single use, one-time sampling (60 min)): 0.26% | QA (%), µ, LY transported during first sampling interval (day 28, batch 3, passage 95, re-use, one-time sampling (60 min)): 0.17% | LY Papp, µ best fit of Normal distribution to Papp (day 28, re-use (18)): 1.4 10^-7 cm/s | LY Papp, µ directly from Papp (day 28, re-use (18)): 1.8 10^-7 cm/s | LY QA, µ from Log(QA) (day 28, re-use, 1st 10 min (10)): 0.07% | LY QA, µ from Log(QA) (day 28, re-use, 1st 60 min (18)): 0.16% | LY QA, µ from Log(QA) (day 28, re-use, 2nd 10 min (10)): 0.08% | LY QA, µ from Log(QA) (day 28, re-use, 3rd 10 min (8)): 0.11% | LY QA, µ from Log(QA) (day 28, re-use, 4th 30 min (10)): 0.19% | LY QA, µ from Log(QA) (day 28, re-use, all 1st samplings (28)): 0.12% | LY QA, µ from Log(QA) (day 28, single use & re-use, 1st 10 min (16)): 0.09% | LY QA, µ from Log(QA) (day 28, single use & re-use, 1st 60 min (24)): 0.19% | LY QA, µ from Log(QA) (day 28, single use & re-use, 2nd 10 min (16)): 0.10% | LY QA, µ from Log(QA) (day 28, single use & re-use, 3rd 10 min (14)): 0.13% | LY QA, µ from Log(QA) (day 28, single use & re-use, 4th 30 min (16)): 0.20% | LY QA, µ from Log(QA) (day 28, single use & re-use, all 1st samplings (40)): 0.14% | LY QA, µ from Log(QA) (day 28, single use & re-use, all samplings (86)): 0.14% | LY Papp, µ directly from Papp (day 28, single use (6)): 3.3 10^-7 cm/s | LY QA, µ from Log(QA) (day 28, single use, 1st 10 min (6)): 0.15% | LY QA, µ from Log(QA) (day 28, single use, 1st 60 min (6)): 0.32% | LY QA, µ from Log(QA) (day 28, single use, 2nd 10 min (6)): 0.14% | LY QA, µ from Log(QA) (day 28, single use, 3rd 10 min (6)): 0.15% | LY QA, µ from Log(QA) (day 28, single use, 4th 30 min (6)): 0.24% | LY QA, µ from Log(QA) (day 28, single use, all 1st samplings (12)): 0.22%
